Reference: patent publication US10287258B2, “Certain (2S)-N-[(1S)-1-cyano-2-phenylethyl]-1,4-oxazepane-2-carboxamides as dipeptidyl peptidase 1 inhibitors” (AstraZeneca AB, priority 2014, dated 2019)

Biological target: recombinant human DPP1 (rhDPP1) (Homo sapiens (Human), UniProt P53634)
Test: Test A1: Fluorescence assay for recombinant human (RH) DPP1
Type: biochemical
Conditions: Test A1 (Examples 1-35), rhDPP1 ~50 pM, 100 μM H-Gly-Arg-AMC, pH 5.0, 22° C.
Description: Test A1: Fluorescence Assay for Recombinant Human (RH) DPP1
The activity of DPP1 was determined by measuring the enzymatic release of aminomethyl coumarin (AMC) from the peptide substrate (H-Gly-Arg-AMC), which leads to an increase in fluorescence intensity at λex=350 nm and λem=450 nm. The assay was carried out in black 384 well plates in a final volume of 50 μl at 22° C. The assay conditions contained the following: 25 mM piperazine buffer pH 5.0; 50 mM NaCl, 5 mM DTT; 0.01% (v/v) Triton X-100; 100 μM H-Gly-Arg-AMC and rhDPP1 (˜50 pM). […] Routinely, inhibitors were pre-incubated with rhDPP1 for 30-60 min prior to the addition of the peptide substrate to start the reaction for a further 60 min at 22° C.

Sequence of recombinant human DPP1 (rhDPP1) (P53634 231-394): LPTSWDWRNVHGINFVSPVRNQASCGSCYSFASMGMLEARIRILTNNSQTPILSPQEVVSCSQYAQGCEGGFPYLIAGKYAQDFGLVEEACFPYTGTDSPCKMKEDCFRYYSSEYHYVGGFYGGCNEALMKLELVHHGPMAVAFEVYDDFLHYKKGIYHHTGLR
Sequence of recombinant human DPP1 (rhDPP1) (P53634 25-134): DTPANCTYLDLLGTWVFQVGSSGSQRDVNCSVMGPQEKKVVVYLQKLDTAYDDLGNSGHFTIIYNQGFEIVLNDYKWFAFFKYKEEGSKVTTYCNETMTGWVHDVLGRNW
Sequence of recombinant human DPP1 (rhDPP1) (P53634 395-463): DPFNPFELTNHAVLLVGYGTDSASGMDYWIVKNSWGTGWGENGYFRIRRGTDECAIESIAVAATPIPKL

Compound	DPP1 activity, pIC50	IC50 (read-out: DPP1 activity, pIC50 (converted)) [nM]
CN1C(=O)COc2ccc(-c3ccc(C[C@@H](C#N)NC(=O)[C@@H]4CNCCCO4)cc3)cc21 [Example 20, (2S)-N-{(1S)-1-Cyano-2-[4-(4-methyl-3-oxo-3,4-dihydro-2H-1,4-benzoxazin-6-yl)phenyl]ethyl}-1,4-oxazepane-2-carboxamide]	7.9	–
N#C[C@H](Cc1ccc(-c2ccc3oc(=O)n(CC4CC4)c3c2)cc1)NC(=O)[C@@H]1CNCCCO1 [Example 17, (2S)-N-[(1S)-1-Cyano-2-{4-[3-(cyclopropylmethyl)-2-oxo-2,3-dihydro-1,3-benzoxazol-5-yl]phenyl}ethyl]-1,4-oxazepane-2-carboxamide]	8.2	–
CN1C(=O)C(F)(F)c2ccc(-c3ccc(C[C@@H](C#N)NC(=O)[C@@H]4CNCCCO4)cc3)cc21 [Example 14, (2S)-N-{(1S)-1-Cyano-2-[4-(3,3-difluoro-1-methyl-2-oxo-2,3-dihydro-1H-indol-6-yl)phenyl]ethyl}-1,4-oxazepane-2-carboxamide]	7.78	–
Cn1c(=O)sc2ccc(-c3ccc(C[C@@H](C#N)NC(=O)[C@@H]4CNCCCO4)cc3)cc21 [Example 29, (2S)-N-{(1S)-1-Cyano-2-[4-(3-methyl-2-oxo-2,3-dihydro-1,3-benzothiazol-5-yl)phenyl]ethyl}-1,4-oxazepane-2-carboxamide]	8.62	–
Cc1noc2ccc(-c3ccc(C[C@@H](C#N)NC(=O)[C@@H]4CNCCCO4)cc3)cc12 [Example 5, (2S)-N-{(1S)-1-Cyano-2-[4-(3-methyl-1,2-benzoxazol-5-yl)phenyl]ethyl}-1,4-oxazepane-2-carboxamide]	7.79	–
Cn1c(=O)oc2c(F)cc(-c3ccc(C[C@@H](C#N)NC(=O)[C@@H]4CNCCCO4)cc3)cc21 [Example 15, (2S)-N-{(1S)-1-Cyano-2-[4-(7-fluoro-3-methyl-2-oxo-2,3-dihydro-1,3-benzoxazol-5-yl)phenyl]ethyl}-1,4-oxazepane-2-carboxamide]	8.29	–
COCCn1c(=O)sc2ccc(-c3ccc(C[C@@H](C#N)NC(=O)[C@@H]4CNCCCO4)cc3)cc21 [Example 18, (2S)-N-[(1S)-1-Cyano-2-{4-[3-(2-methoxyethyl)-2-oxo-2,3-dihydro-1,3-benzothiazol-5-yl]phenyl}ethyl]-1,4-oxazepane-2-carboxamide]	8.5	–
CN1C(=O)CSc2ccc(-c3ccc(C[C@@H](C#N)NC(=O)[C@@H]4CNCCCO4)cc3)cc21 [Example 9, (2S)-N-{(1S)-1-Cyano-2-[4-(4-methyl-3-oxo-3,4-dihydro-2H-1,4-benzothiazin-6-yl)phenyl]ethyl}-1,4-oxazepane-2-carboxamide]	7.89	–
N#C[C@H](Cc1ccc(-c2ccc3scnc3c2)cc1)NC(=O)[C@@H]1CNCCCO1 [Example 33, (2S)-N-{(1S)-2-[4-(1,3-Benzothiazol-5-yl)phenyl]-1-cyanoethyl}-1,4-oxazepane-2-carboxamide]	7.21	–
N#Cc1ccc(-c2ccc(C[C@@H](C#N)NC(=O)[C@@H]3CNCCCO3)cc2)s1 [Example 22, (2S)-N-{(1S)-1-Cyano-2-[4-(5-cyanothiophen-2-yl)phenyl]ethyl}-1,4-oxazepane-2-carboxamide]	7.71	–
N#C[C@H](Cc1ccc(-c2ccc(F)cc2)cc1)NC(=O)[C@@H]1CNCCCO1 [Example 32, (2S)-N-[(1S)-1-Cyano-2-(4′-fluorobiphenyl-4-yl)ethyl]-1,4-oxazepane-2-carboxamide]	7.37	–
N#C[C@H](Cc1ccc(-c2ccc3oc(=O)n(CC(F)F)c3c2)cc1)NC(=O)[C@@H]1CNCCCO1 [Example 27, (2S)-N-[(1S)-1-Cyano-2-{4-[3-(2,2-difluoroethyl)-2-oxo-2,3-dihydro-1,3-benzoxazol-5-yl]phenyl}ethyl]-1,4-oxazepane-2-carboxamide]	8.18	–
N#Cc1ccc(-c2ccc(C[C@@H](C#N)NC(=O)[C@@H]3CNCCCO3)cc2)cn1 [Example 8, (2S)-N-{(1S)-1-Cyano-2-[4-(6-cyanopyridin-3-yl)phenyl]ethyl}-1,4-oxazepane-2-carboxamide]	7.06	–
COCCn1c(=O)oc2ccc(-c3ccc(C[C@@H](C#N)NC(=O)[C@@H]4CNCCCO4)cc3)cc21 [Example 21, (2S)-N-[(1S)-1-Cyano-2-{4-[3-(2-methoxyethyl)-2-oxo-2,3-dihydro-1,3-benzoxazol-5-yl]phenyl}ethyl]-1,4-oxazepane-2-carboxamide]	8.09	–
CCn1c(=O)oc2c(C)cc(-c3ccc(C[C@@H](C#N)NC(=O)[C@@H]4CNCCCO4)cc3)cc21 [Example 10, (2S)-N-{(1S)-1-Cyano-2-[4-(3-ethyl-7-methyl-2-oxo-2,3-dihydro-1,3-benzoxazol-5-yl)phenyl]ethyl}-1,4-oxazepane-2-carboxamide]	7.67	–
N#Cc1ccc(-c2ccc(C[C@@H](C#N)NC(=O)C3CNCCCO3)cc2)cc1 (mixture of isomers) [Example 34, Diastereomeric mixture of (2S)-N-[(1S)-1-cyano-2-(4′-cyanobiphenyl-4-yl)ethyl]-1,4-oxazepane-2-carboxamide and (2R)—N-[(1S)-1-cyano-2-(4′-cyanobiphenyl-4-yl)ethyl]-1,4-oxazepane-2-carboxamide]	–	60.3
CC(C)(O)Cn1c(=O)oc2ccc(-c3ccc(C[C@@H](C#N)NC(=O)[C@@H]4CNCCCO4)cc3)cc21 [Example 11, (2S)-N-[(1S)-1-Cyano-2-{4-[3-(2-hydroxy-2-methylpropyl)-2-oxo-2,3-dihydro-1,3-benzoxazol-5-yl]phenyl}ethyl]-1,4-oxazepane-2-carboxamide]	7.05	–
Cn1c(=O)ccc2ccc(-c3ccc(C[C@@H](C#N)NC(=O)[C@@H]4CNCCCO4)cc3)cc21 [Example 24, (2S)-N-{(1S)-1-Cyano-2-[4-(1-methyl-2-oxo-1,2-dihydroquinolin-7-yl)phenyl]ethyl}-1,4-oxazepane-2-carboxamide]	7.86	–
N#C[C@H](Cc1ccc(-c2ccc3oc(=O)n(CC4CCOCC4)c3c2)cc1)NC(=O)[C@@H]1CNCCCO1 [Example 25, (2S)-N-[(1S)-1-Cyano-2-{4-[2-oxo-3-(tetrahydro-2H-pyran-4-ylmethyl)-2,3-dihydro-1,3-benzoxazol-5-yl]phenyl}ethyl]-1,4-oxazepane-2-carboxamide]	7.97	–
N#C[C@H](Cc1ccc(-c2ccc(F)c(F)c2)cc1)NC(=O)[C@@H]1CNCCCO1 [Example 7, (2S)-N-[(1S)-1-Cyano-2-(3′,4′-difluorobiphenyl-4-yl)ethyl]-1,4-oxazepane-2-carboxamide]	7.16	–
N#C[C@H](Cc1ccc(-c2cc(F)c3oc(=O)n(CC(F)F)c3c2)cc1)NC(=O)[C@@H]1CNCCCO1 [Example 12, (2S)-N-[(1S)-1-Cyano-2-{4-[3-(2,2-difluoroethyl)-7-fluoro-2-oxo-2,3-dihydro-1,3-benzoxazol-5-yl]phenyl}ethyl]-1,4-oxazepane-2-carboxamide]	8.0	–
N#C[C@H](Cc1ccc(-c2ccc3oc(=O)n(CC(F)(F)F)c3c2)cc1)NC(=O)[C@@H]1CNCCCO1 [Example 28, (2S)-N-[(1S)-1-Cyano-2-{4-[2-oxo-3-(2,2,2-trifluoroethyl)-2,3-dihydro-1,3-benzoxazol-5-yl]phenyl}ethyl]-1,4-oxazepane-2-carboxamide]	8.09	–
N#C[C@H](Cc1ccc(-c2ccc(C(F)(F)F)cc2)cc1)NC(=O)[C@@H]1CNCCCO1 [Example 6, (2S)-N-{(1S)-1-Cyano-2-[4′-(trifluoromethyl)biphenyl-4-yl]ethyl}-1,4-oxazepane-2-carboxamide]	7.44	–
N#C[C@H](Cc1ccc(-c2ccc(S(=O)(=O)N3CCC3)cc2)cc1)NC(=O)[C@@H]1CNCCCO1 [Example 31, (2S)-N-{(1S)-2-[4′-(Azetidin-1-ylsulfonyl)biphenyl-4-yl]-1-cyanoethyl}-1,4-oxazepane-2-carboxamide]	7.67	–
Cn1c(=O)oc2c(Cl)cc(-c3ccc(C[C@@H](C#N)NC(=O)[C@@H]4CNCCCO4)cc3)cc21 [Example 26, (2S)-N-{(1S)-2-[4-(7-Chloro-3-methyl-2-oxo-2,3-dihydro-1,3-benzoxazol-5-yl)phenyl]-1-cyanoethyl}-1,4-oxazepane-2-carboxamide]	7.87	–
